Results as given in PMC12037037 (Proceedings of the National Academy of Sciences of the …, 2025).

Test system: male Sprague Dawley rats
Assay: Rat forced swim test (FST)
Assay type: in vivo
Details: for Swimming (Figure 6B) / Immobility (Figure 6B): 24 h after administration; for Swimming (Figure 6B): VEH 22.10 ± 1.929; for Immobility (Figure 6B): VEH 37.20 ± 1.867
Description: Reads were aligned to the GRCm39 genome assembly using STAR, processed with Picard, and counted with the Subread software. Transcript inclusion criteria consisted of a minimum raw expression level of 25 transcripts in a minimum of 4 samples. Surrogate variable analysis was conducted with the sva package 2023 release v3.5.0 in R and normalization and differential expression analysis was performed with DESeq2 v4.3 with a baseMean threshold of 10. Heatmaps were created with the pheatmap v1.0.12 with sample-wise z-scores plotted and both row and column grouping allowed using pearson's distances and ward.D for clustering. Gene-wise selection criteria for heatmaps were a baseMean expression threshold of 50 to focus on robustly expressed genes, p value < 0.05, and presence in the top 250 genes sorted by absolute value of log2FC. Additionally, z score was capped at 2 for visualization purposes. Schizophrenia gene sets were extracted from a recent TWAS study (30).
For Figure S8G, the TWAS set was filtered for FDR < 0.01. Permutation testing was conducted to quantify the overlap of top genes from schizophrenia TWAS with the perm_test function from the bulkWarehouse package 2023 release v1.2.7.
Briefly, the intersection of top differentially expressed genes and top TWAS genes is compared to an empirical distribution created by calculating the intersection with our top DEGs when randomly sampling candidate genes from our dataset equal to the size of the TWAS sample. Selection criteria from the TWAS include an expression level of 25 transcripts in a minimum of 4 samples in our dataset, FDR < 0.01 from the TWAS and top 250 sorted by absolute value of log2FC. Selection criteria from our gene set were an expression level of 25 transcripts in a minimum of 4 samples, p value < 0.1 and top 250 sorted by absolute value of log2FC.
Rat Forced Swim Test (FST). This study was performed by Psychogenics (Paramus, NJ). Male Sprague Dawley rats were purchased from Envigo (Indianapolis, IN), and were 8 weeks old at the time of the experiments. Upon receipt, they were assigned unique identification numbers (tail marked) and group housed in ventilated cages with 3 rats per cage. All animals […]
remained housed in groups of three for the remainder of the study. All rats were acclimated to the colony room for up to one week prior to dosing. During the period of acclimation, rats were examined and handled daily, and weighed to assure adequate health and suitability. The room temperature was maintained between 20 °C and 23 °C with a relative humidity of 30%–70%. Lab Rodent Diet 5001 (W.F. Fisher, Cat # 11015) and water were provided ad libitum. Animals were randomly assigned across treatment groups. All testing was performed during the light phase of the light/dark cycle. Behavioral testing was conducted according to established protocols approved by the IACUC committee and PGI Standard Operation Procedures (SOP). Each forced swim chamber was constructed of clear acrylic (height = 40 cm; diameter = 20.3 cm). Only one rat was placed in the swim chamber at a time for each swim test. The water was changed and the chamber cleaned between each animal. The water depth was 16 cm in the first swim session (pre-test) and 30 cm in the second swim session (test). The water was maintained at 23 °C ± 1 °C for all swim sessions. At the end of each swim test rats were dried with paper towels and returned to the home cage. All animals were carefully monitored to ensure their safety in the swim test and any animal unable to maintain a posture with its nose above water was immediately removed from the water and not used further in the study. Animals were first subjected to a pre-test for 15 min. Immediately after the pre-test, they were administered compounds or VEH via i.p. injection (1 ml/kg). Racemic ketamine hydrochloride (10 mg/kg) was used as a positive control. A salt correction factor of 1.36 was used when preparing formulations of (+)-JRT to ensure that the dose corresponded to that of the free base. […]

Structure (SMILES): CCN(CC)C(=O)[C@@H]1C=C2c3cccc4ccn(c34)C[C@H]2N(C)C1 [(+)-JRT]
- Swimming (Figure 6B) (0.3mg/kg IP): 31.70 ± 2.534
- Immobility (Figure 6B) (0.3mg/kg IP): 27.20 ± 2.546
- Swimming (Figure 6B) (1.0mg/kg IP): 31.50 ± 1.778
- Immobility (Figure 6B) (1.0mg/kg IP): 27.70 ± 1.850
- Potency relative to ketamine in the forced swim test (lowest effective dose not determined): at least 100 fold
